According to ChEMBL document CHEMBL1134093, “Amidino benzimidazole inhibitors of bacterial two-component systems” (Bioorg Med Chem Lett, 2001):
Converted amounts (≈) assume the structure as drawn.

Columns and labels:
[1] = biological target: T1, KinA/Spo0F (sporulation kinase A/sporulation initiation phosphotransferase F) (Bacillus subtilis (strain 168), UniProt P06628+P16497); test: Inhibition of KinA/Sp0F system two component (TCS) from Bacillus subtilis.; format: protein assay
T1 sequence (P06628 whole entry): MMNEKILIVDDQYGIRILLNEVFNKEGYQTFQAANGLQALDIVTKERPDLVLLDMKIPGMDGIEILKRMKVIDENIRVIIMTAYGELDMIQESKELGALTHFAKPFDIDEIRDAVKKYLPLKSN
T1 sequence (P16497 whole entry): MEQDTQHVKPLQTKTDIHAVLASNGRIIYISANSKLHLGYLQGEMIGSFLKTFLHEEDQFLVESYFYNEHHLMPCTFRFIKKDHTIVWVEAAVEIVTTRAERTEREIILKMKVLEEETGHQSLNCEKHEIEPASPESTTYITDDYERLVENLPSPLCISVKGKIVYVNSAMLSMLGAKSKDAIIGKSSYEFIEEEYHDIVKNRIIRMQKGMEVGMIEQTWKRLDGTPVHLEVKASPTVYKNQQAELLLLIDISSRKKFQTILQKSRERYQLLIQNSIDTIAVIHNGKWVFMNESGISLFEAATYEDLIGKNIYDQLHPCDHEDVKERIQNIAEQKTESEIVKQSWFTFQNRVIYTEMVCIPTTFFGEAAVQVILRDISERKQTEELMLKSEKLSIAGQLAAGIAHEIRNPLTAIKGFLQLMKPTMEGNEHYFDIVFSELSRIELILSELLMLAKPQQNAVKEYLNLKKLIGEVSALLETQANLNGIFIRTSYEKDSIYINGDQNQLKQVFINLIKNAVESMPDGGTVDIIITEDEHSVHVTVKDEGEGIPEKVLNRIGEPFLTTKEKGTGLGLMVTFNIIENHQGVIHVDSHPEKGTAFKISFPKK

Staphylococcus aureus [2] = test: Inhibition of growth of methicillin resistant Staphylococcus aureus MRSA OC 2089.; format: functional
Enterococcus faecium = test: Inhibition of growth of Vancomycin resistant Enterococcus faecium (VRE) OC 3312.
Staphylococcus aureus [3] = test: Inhibition of growth of Staphylococcus aureus ATCC 29213.; format: functional
Enterococcus faecalis = test: Inhibition of growth of Enterococcus faecalis OC 3041.; format: functional
Staphylococcus aureus [4] = test: Compound was evaluated for inhibition of growth of Staphylococcus aureus ATCC 29213; format: functional
Staphylococcus aureus [5] = test: Compound was evaluated for inhibition of growth of methicillin resistant Staphylococcus aureus MRSA OC 2089; format: functional
[6] = biological target: T1, KinA/Spo0F (sporulation kinase A/sporulation initiation phosphotransferase F); test: Inhibition of KinA/Sp0F system two component system (TCS) from Bacillus subtilis; format: protein assay

SMILES	IC50 [1] [µM]	MIC (Staphylococcus aureus [2]) [µg/mL]	MIC (Enterococcus faecium) [µg/mL]	MIC (Staphylococcus aureus [3]) [µg/mL]	MIC (Enterococcus faecalis) [µg/mL]	MIC (Staphylococcus aureus [4]) [µg/mL]	MIC (Staphylococcus aureus [5]) [µg/mL]	IC50 [6] [µM]
N=C(N)c1ccc2oc(-c3ccc(Oc4ccccc4)cc3)nc2c1	138							
CC(C)(C)c1cccc(-c2nc3cc(C(=N)N)ccc3[nH]2)c1O	6	1 (≈ 3.24 µM)	2 (≈ 6.49 µM)	1 (≈ 3.24 µM)	2 (≈ 6.49 µM)			
CC(C)(C)c1cc(-c2nc3cc(C(=N)N)ccc3o2)c(O)c(C(C)(C)C)c1	14	1 (≈ 2.74 µM)	1 (≈ 2.74 µM)	1 (≈ 2.74 µM)	1 (≈ 2.74 µM)			
COC(=O)c1ccc2[nH]c(-c3cc(C(C)(C)C)cc(C(C)(C)C)c3O)nc2c1	380							
CC(C)(C)c1cc(-c2nc3cc(C4=NCCN4)ccc3[nH]2)c(O)c(C(C)(C)C)c1	10	1 (≈ 2.56 µM)	1 (≈ 2.56 µM)	1 (≈ 2.56 µM)	1 (≈ 2.56 µM)			
N=C(N)c1ccc2nc(-c3ccc(Oc4ccccc4)cc3)oc2c1	49							
CC(C)(C)c1cc(-c2nc3cc(C(=N)N)ccc3[nH]2)c(O)c(C(C)(C)C)c1	12	2 (≈ 5.49 µM)	1 (≈ 2.74 µM)	1 (≈ 2.74 µM)	2 (≈ 5.49 µM)			
CC(C)(C)c1cccc(-c2nc3cc(C(=N)N)ccc3[nH]2)c1	163							
N=C(N)c1ccc2nc(-c3ccc(Oc4ccccc4)cc3)[nH]c2c1			16 (≈ 48.7 µM)		16 (≈ 48.7 µM)	8 (≈ 24.4 µM)	16 (≈ 48.7 µM)	
Cn1c(-c2ccc(Oc3ccccc3)cc2)nc2cc(C(=N)N)ccc21	44	32 (≈ 93.5 µM)	32 (≈ 93.5 µM)	16 (≈ 46.7 µM)	> 64			
CC(C)(C)c1cc(-c2nc3cc(C(=N)N)ccc3[nH]2)cc(C(C)(C)C)c1	25	4 (≈ 11.5 µM)	4 (≈ 11.5 µM)	2 (≈ 5.74 µM)	4 (≈ 11.5 µM)			
Cc1onc(-c2ccccc2)c1C(=O)N[C@@H]1C(=O)N2[C@@H]1SC(C)(C)[C@@H]2C(=O)O [OXACILLIN]		> 64	> 64	0.25 (≈ 0.623 µM)	16 (≈ 39.9 µM)			
N=C(N)c1ccc2cc(-c3ccc(Oc4ccccc4)cc3)[nH]c2c1	7.7	4 (≈ 12.2 µM)	4 (≈ 12.2 µM)	4 (≈ 12.2 µM)	4 (≈ 12.2 µM)			
CC(C)(C)c1cc(-c2nc3ccc(C(=N)N)cc3o2)c(O)c(C(C)(C)C)c1	15.4	2 (≈ 5.47 µM)	1 (≈ 2.74 µM)	2 (≈ 5.47 µM)	2 (≈ 5.47 µM)			
N=C(N)c1ccc2[nH]c(-c3ccccc3)nc2c1	> 500							
CC(C)(C)c1ccc(O)c(-c2nc3cc(C(=N)N)ccc3[nH]2)c1		8 (≈ 25.9 µM)	16 (≈ 51.9 µM)	8 (≈ 25.9 µM)	16 (≈ 51.9 µM)			
N=C(N)c1ccc2nc(-c3ccc(-c4ccccc4)cc3)[nH]c2c1	88							
N=C(N)c1ccc2[nH]c(-c3ccc(N(c4ccccc4)c4ccccc4)cc3)nc2c1	17	16 (≈ 39.7 µM)	4 (≈ 9.91 µM)	4 (≈ 9.91 µM)	4 (≈ 9.91 µM)			
CC(C)(N)CNC(=O)c1ccc2[nH]c(-c3cc(C(C)(C)C)cc(C(C)(C)C)c3O)nc2c1	10							
COc1c(-c2nc3cc(C(=N)N)ccc3[nH]2)cc(C(C)(C)C)cc1C(C)(C)C		4 (≈ 10.6 µM)	4 (≈ 10.6 µM)	4 (≈ 10.6 µM)	8 (≈ 21.1 µM)			
N=C(N)c1ccc(Oc2ccc(-c3cc4ccc(C(=N)N)cc4[nH]3)cc2)cc1		0.5 (≈ 1.35 µM)	0.5 (≈ 1.35 µM)	1 (≈ 2.71 µM)	1 (≈ 2.71 µM)			31
